The text below walks through data of a melting point compilation (Tetko et al.; mined from patent text by program, amines drawn as free bases though some values may be those of a salt).

Molecules are shown by their SMILES.

The melting point is the temperature, or range, at which the solid turns liquid.

On to `Brc1ccc(/C=N/c2ccccc2)c(OCc2ccccc2)c1`, for which the melting point was 100 °C.

In the case of `CCCCc1nc2c(N)nc3cccnc3c2n1CCNC(=O)CC(C)CCC=C(C)C` (centres undefined), the melting point is 163 to 164 °C.

`O=C(NC1CCN(CC(O)COc2cccc3ccccc23)CC1)c1ccccc1` (centres undefined) registered a melting point of 139 to 141 °C.

Take `Cc1c(C)n2nnnc2c2nc(C)n(CCNC(=O)OC(C)(C)C)c12`: the melting point was over 250 °C.

With `CC(=O)Oc1c(C)c(C=O)nc2ccccc12`, the melting point was 132 to 133 °C.

Molecule `CC1CC(Nc2ccc(F)cc2)c2cc(F)ccc2N1` (centres undefined) came in with a melting point of 120 to 122 °C.

In the case of `COc1cc(-n2nc(C(F)(F)F)cc2-c2ccc(S(C)(=O)=O)cc2)ccc1Cl`, the melting point is 157 to 158 °C.

Molecule `CCSc1ccc(Oc2ccc(Cl)c(Cl)c2)nc1C#N` returned a melting point of 64 to 66 °C.

Molecule `O=C(Nc1ccc(I)cc1)OCc1ccccc1` yielded a melting point of 132 to 134 °C.

For the molecule `COc1ccc(-c2cccc(-c3nc(C(C)C)[nH]c3-c3cccc(C)n3)c2)cn1`, the melting point is 72 to 74 °C.

In turn, `CCN(CC)c1ccc2nc3c4ccccc4c(=Nc4ncc(Cl)cc4Cl)cc-3oc2c1` came in with a melting point of 192 to 193 °C.

`Cc1nc(-c2cc([N+](=O)[O-])ccc2F)cs1` yielded a melting point of 160 to 162 °C.

With `COC(=O)c1ccc2sc3ccccc3c2c1`, the melting point lay in the range of 127 to 129 °C.

The molecule `CC(C)NC1=NS(=O)(=O)c2cc(Cl)cc([N+](=O)[O-])c2N1` had a melting point of 266 to 267 °C.

On to `O=C1NCCN1CCN1CCN([C@@H]2C[C@@H](c3ccc(F)cc3)c3ccccc32)CC1`, for which the melting point is 94 to 97 °C.

Molecule `COCC(=O)Nc1cccc(NC(=O)COC)c1` gave a melting point of 110 to 111 °C.

With `Cc1cn(C2OC(COC(=O)c3ccccc3)C(OC(=O)c3ccccc3)C2OC(=O)c2ccccc2)c(=O)[nH]c1=O` (centres undefined), the melting point was 90 °C.

Turning to `CCc1cc(N)cc(CC)n1`, the melting point fell in the range of 133 to 137 °C.

With `CC(=O)c1ccc2c(c1)C1(C)C3(C)CCC(C3)C1(C)O2` (centres undefined), the melting point lay in the range of 140 to 142 °C.

The molecule `Cc1nc(C)c(Cl)c(NCc2nccc(OCCCCN3CCN(Cc4ccncc4)CC3)c2C)n1` displayed a melting point of 157 to 158 °C.

`O=C(O)C[C@@H](Oc1c(Br)cc(-c2c3ccccc3c(Br)c3sc4ccccc4c23)cc1Br)C(=O)O`: the melting point is 163 to 164 °C.

Molecule `O=C(OCc1ccc(C(F)(F)F)cc1)N1CCC2(CC1)Cn1cc([N+](=O)[O-])nc1O2` returned a melting point of 189 to 190 °C.

In the case of `CS(=O)(=O)OCc1cc(-c2ccc(OCc3ccccc3)cc2)no1`, the melting point lay in the range of 110 to 112 °C.

With `CCc1ccc(Nc2c(C(=O)NOC(CO)CO)ccc(F)c2F)c(F)c1`, the melting point lay in the range of 91 to 93 °C.

For `Nc1c(NCCCN(Cc2ccccc2)c2ccccn2)c(=O)c1=O`, the melting point fell in the range of 228 to 231 °C.

Molecule `NNC(=O)c1cn2c(nc1=O)CCC2` had a melting point of 204 to 206 °C.

In the case of `CCOCc1nc2c(N)nc(C)c(C)c2n1NCc1cccnc1`, the melting point lay in the range of 147 to 149 °C.

The molecule `COc1c(/C=C/C(=O)Nc2ccccc2)c(=O)c2ccc(Cl)cc2[nH]c1=O` registered a melting point of 215 to 217 °C.

`COc1ccc(-c2ccc(=O)[nH]n2)c(OCC(O)CNC(C)(C)C)c1` (centres undefined): the melting point fell in the range of 159 to 161 °C.

With `CSc1ccc(C(C)=Cc2ccc3ccccc3c2)cc1`, the melting point stood at 161 °C.

`Cn1cc(-c2cc(-c3cnc4[nH]ccc4c3)ccn2)n(-c2ccc(C(C)(C)C(N)=O)cc2)c1=O` yielded a melting point of 299 °C.

Regarding `CN(C)C=C1CCc2ccn(Cc3ccccc3)c2C1=O`, the melting point was 116 to 118 °C.

Take `COc1c(C)c2c(c(OC(C)=O)c1C/C=C/c1c(C)cccc1C(=O)O)C(=O)OC2`: the melting point was 180 to 183 °C.

`CC(C)(C)OC(=O)[C@@H]1CS[C@H](c2cccc(O)c2)N1C(=O)CNC(=O)Nc1cccc(C(=O)O)c1` had a melting point of 150 °C.

Consider `COC(=O)C1=C(C)NC(C)=C(C(=O)O)[C@H]1c1cccc2nonc12`, for which the melting point worked out at 175 °C.

With `C=CCN(CC=C)c1nc(NC(=O)COC)n2oc(=O)nc2n1`, the melting point fell in the range of 135 to 136 °C.

`NS(=O)(=O)c1cccc(-c2noc(-c3cnn4c(C(F)(F)F)cc(-c5ccc(C(F)(F)F)cc5)nc34)n2)c1` yielded a melting point of 262 °C.

For `CON=Cc1nc2c(N)nc3cc(-c4cccc(CS(N)(=O)=O)c4)ccc3c2s1`, the melting point is 254 to 256 °C.

`Cc1c(-c2ccccc2)oc2c(S(=O)(=O)CCCCl)cccc2c1=O` gave a melting point of 160 to 163 °C.

`CC(=O)c1cccc2nnsc12`: the melting point fell in the range of 126 to 127 °C.

In turn, `Cn1c(=O)c2c(ncn2CCN2CCC(c3c[nH]c4ccccc34)CC2)n(C)c1=O` came in with a melting point of 201 °C.

In the case of `COc1cc(NC(=O)Nc2ccc3c(c2)CCN(C(=O)Nc2ccc(OCCO)cc2Cl)C3)cc(OC)c1`, the melting point was in the range of 105 to 110 °C.

For the molecule `Nc1ncc2cc(-c3ccccn3)c(N)nc2n1`, the melting point fell in the range of 312 to 321 °C.

`Cc1nc(N2CC(Cc3ccccc3)CC2=O)sc1C(=O)NCc1ccccc1` (centres undefined) showed a melting point of 143 to 144 °C.

With `CCNC(=O)c1ccccc1[Si](C)(C)C`, the melting point was in the range of 64 to 66 °C.

Take `O=c1[nH]c2ccccc2n1CCN1CCN(Cc2ccccc2)CC1`: the melting point is 136 °C.

Molecule `CNC(=O)Nc1nnc(C(F)F)s1` had a melting point of 198 to 200 °C.

Take `O=S1NC(CC2=Cc3ccccc3CC2)=NO1` (centres undefined): the melting point lay in the range of 118 to 120 °C.

`CCCCC(=O)Nc1c(C(=O)c2cccc(Cl)c2)[nH]c2cc(Cl)ccc12` yielded a melting point of 159 to 160 °C.

For `CSc1c(C(Cc2ccc(Cl)cc2)C(=O)O)ccc2c3ccccc3n(Cc3ccc(Cl)cc3)c12` (centres undefined), the melting point lay in the range of 104 to 107 °C.

Regarding `COC(=O)C(=NOC(F)F)c1ccccc1COc1cc(C)ccc1C`, the melting point lay in the range of 61 to 65 °C.

Regarding `CSC(=N)N(c1ccccc1)c1ccccc1`, the melting point is 104 to 106 °C.

With `CCOC(=O)C=C(C)C=CC=C(C)C=Cc1c(C)c(C)c(OC)c(C)c1Cl`, the melting point worked out at 90 °C.

With `CC(C)(C)c1cc(-c2nn(CCC(N)=O)c3ncccc23)cc(C(C)(C)C)c1O`, the melting point is 154 to 157 °C.

`C[C@@H](Nc1ncnc2[nH]c(-c3ccc(CO)cc3)cc12)c1ccccc1` returned a melting point of over 300 °C.

`O=CC1=CCC(C=CC(=O)O)C=C1` (centres undefined) yielded a melting point of 134 to 138 °C.

The molecule `CCC(=O)OCc1nc(-c2ccc(OC)c(OC)c2)c2cc(OC)c(OC)cc2c1CC` had a melting point of 125 to 127 °C.

In turn, `CC(C)c1ccccc1-n1c(=O)[nH]c2c(C(N)=O)nc(-c3ccc(-n4ccnc4)cc3)nc21` had a melting point of 232 °C.

In turn, `Clc1ccc2c3c(cccc13)C(NCCCCCn1ccnc1)=N2` returned a melting point of 132 to 134 °C.

Consider `CCCCCCCCCCOc1cnc(-c2ccccc2C#CCC(C)O)nc1` (single isomer, unassigned; (-)), for which the melting point is 71 to 72 °C.

`COc1ccccc1N1CCN(CC(O)COc2ccccc2C(=O)O)CC1` (centres undefined): the melting point lay in the range of 198 to 202 °C.

`COc1cc(Cl)ccc1C(=O)NCCc1nc(-c2ccncn2)cc(=O)n1C` returned a melting point of 121 to 123 °C.

Take `CC(C)(C)N1C(=O)c2cnc(-c3ccccc3)nc2N(C(=O)CN2CCCCC2)c2ccccc21`: the melting point was in the range of 193 to 194 °C.

As for `CC(C)c1cc(C(C)C)c(CC(=O)NS(=O)(=O)Oc2c(C(C)C)cc(SC#N)cc2C(C)C)c(C(C)C)c1`, the melting point was 164 to 165 °C.

`C=C(C)C#Cc1cccc2c1C(=O)OC(C)(C)O2` registered a melting point of 60 °C.

With `N#Cc1cc(N)ccc1N1CCN(C2CCOCC2)CC1`, the melting point came out at 162 °C.

For `CCOP(=O)(OCC)c1cc2cc(S(N)(=O)=O)c(Cl)cc2[nH]c1=O`, the melting point lay within 288 to 290 °C.

As to `COc1ccc(C2=NN(c3ccc(CCBr)cc3)C(=O)[C@H]3CC=CC[C@@H]23)cc1OC` (relative stereo), the melting point lay within 126 to 127 °C.

The molecule `CC/C=C\C#CCCCCCCCCCCO` registered a melting point of 6 to 7 °C.

`O=C(O)Cc1cc(C(=O)c2cccc(Cl)c2)ccc1O` came in with a melting point of 186 °C.

For the molecule `O=C(Nc1ccc(-n2nc(C(F)(F)F)cc2C(F)(F)F)cc1)c1cccc(I)c1`, the melting point lay within 192 to 193 °C.

Turning to `c1ccc(-c2cccc(-c3nc4c5ccccc5ccn4n3)c2)cc1`, the melting point was 167 to 169 °C.

Molecule `CCOC(=O)C(CC)c1ccc(N[C@@H](CCC(N)=O)C(=O)O)cc1` (some centres undefined) returned a melting point of 157 °C.

`N#CC(N)=C(C#N)NCc1cnn(-c2c(Cl)cc(C(F)(F)F)cc2Cl)n1` came in with a melting point of 191 to 192 °C.

Take `C=C(C)C(=O)OC1=CC(O)(C(C)=O)C(C(=O)O)C=C1` (centres undefined): the melting point stood at 153 °C.

Turning to `Fc1ccc(-c2cc(N3CCN(CC4CC4)CC3)nc3c2CCCCCC3)cc1`, the melting point fell in the range of 109 to 110 °C.

`CCCCCOc1ccc(C(=O)c2cccc3ccccc23)c2ccccc12` showed a melting point of 72 to 75 °C.

In turn, `CC(=O)NCCc1ccc(CC(=O)O)cc1` displayed a melting point of 117 to 118 °C.

On to `CCOC(=O)c1cn(C2CC2)c2c(OC(F)F)c(F)c(F)c(N)c2c1=O`, for which the melting point fell in the range of 295 to 296 °C.

As to `CSc1ccc2ccc(N3C(=O)c4ccccc4C3=O)nc2n1`, the melting point came to 235 °C.

In the case of `CC(=O)c1ccccc1NC(=O)C(Cl)(Cl)Cl`, the melting point was 113 °C.

Consider `CC(CCCl)=C1SC(=S)N(CC(=O)O)C1=O`, for which the melting point was 205 to 207 °C.

`Cc1nc2ccsc2c2ccccc12` showed a melting point of 74 to 76 °C.

As to `COc1ccc(C2OC(=O)N3CC(=O)CCC23)cc1OC` (centres undefined), the melting point stood at 180 °C.

Regarding `Cc1c(NC(=O)c2ccc(OCC3CC3)cc2)ccc2cc(CNCC3CCOCC3)[nH]c12`, the melting point lay within 167 to 168 °C.

Molecule `O=C(NCc1ccc(F)cc1-n1cncn1)c1nc2n(c(=O)c1OCc1ccccc1)CCN2c1ccccc1` registered a melting point of 187 to 190 °C.

As to `Cc1cnc(-c2ccc(C(F)(F)F)cc2)n1C`, the melting point came to 130 °C.

Take `C=C(Cl)Cc1cc2c(C)cc(=O)oc2c(C)c1O`: the melting point is 135 to 163 °C.

As for `CN1C(=O)N2CCSC2(c2ccccc2)C1=O` (centres undefined), the melting point is 100 to 102 °C.
